Test results as given in the kinase profiling compilation of Christmann-Franck et al. (2016).

How the values were obtained:
Assay in all cases: KINOMEscan competition binding
Settings in all cases: compound 10.0 µM
PRKACB (human) = PRKACB (human) (UniProt P22694)
KDR (human) = KDR (human) (UniProt P35968)
STK36 (human) = STK36 (human) (UniProt Q9NRP7)
[1] = system: EGFR (human), P00533 [A750P; 747-749 del]
ROCK2 (human) = ROCK2 (human) (UniProt O75116)
MYLK2 (human) = MYLK2 (human) (UniProt Q9H1R3)
MARK1 (human) = MARK1 (human) (UniProt Q9P0L2)
CHEK2 (human) = CHEK2 (human) (UniProt O96017)
STK32C (human) = STK32C (human) (UniProt Q86UX6)
TEK (human) = TEK (human) (UniProt Q02763)
NTRK3 (human) = NTRK3 (human) (UniProt Q16288)
INSRR (human) = INSRR (human) (UniProt P14616)
[2] = system: ABL1 (human), P00519 [F317L]
ABL1 (human), P00519 [F317L], sequence (P00519 whole entry F317L, looked up): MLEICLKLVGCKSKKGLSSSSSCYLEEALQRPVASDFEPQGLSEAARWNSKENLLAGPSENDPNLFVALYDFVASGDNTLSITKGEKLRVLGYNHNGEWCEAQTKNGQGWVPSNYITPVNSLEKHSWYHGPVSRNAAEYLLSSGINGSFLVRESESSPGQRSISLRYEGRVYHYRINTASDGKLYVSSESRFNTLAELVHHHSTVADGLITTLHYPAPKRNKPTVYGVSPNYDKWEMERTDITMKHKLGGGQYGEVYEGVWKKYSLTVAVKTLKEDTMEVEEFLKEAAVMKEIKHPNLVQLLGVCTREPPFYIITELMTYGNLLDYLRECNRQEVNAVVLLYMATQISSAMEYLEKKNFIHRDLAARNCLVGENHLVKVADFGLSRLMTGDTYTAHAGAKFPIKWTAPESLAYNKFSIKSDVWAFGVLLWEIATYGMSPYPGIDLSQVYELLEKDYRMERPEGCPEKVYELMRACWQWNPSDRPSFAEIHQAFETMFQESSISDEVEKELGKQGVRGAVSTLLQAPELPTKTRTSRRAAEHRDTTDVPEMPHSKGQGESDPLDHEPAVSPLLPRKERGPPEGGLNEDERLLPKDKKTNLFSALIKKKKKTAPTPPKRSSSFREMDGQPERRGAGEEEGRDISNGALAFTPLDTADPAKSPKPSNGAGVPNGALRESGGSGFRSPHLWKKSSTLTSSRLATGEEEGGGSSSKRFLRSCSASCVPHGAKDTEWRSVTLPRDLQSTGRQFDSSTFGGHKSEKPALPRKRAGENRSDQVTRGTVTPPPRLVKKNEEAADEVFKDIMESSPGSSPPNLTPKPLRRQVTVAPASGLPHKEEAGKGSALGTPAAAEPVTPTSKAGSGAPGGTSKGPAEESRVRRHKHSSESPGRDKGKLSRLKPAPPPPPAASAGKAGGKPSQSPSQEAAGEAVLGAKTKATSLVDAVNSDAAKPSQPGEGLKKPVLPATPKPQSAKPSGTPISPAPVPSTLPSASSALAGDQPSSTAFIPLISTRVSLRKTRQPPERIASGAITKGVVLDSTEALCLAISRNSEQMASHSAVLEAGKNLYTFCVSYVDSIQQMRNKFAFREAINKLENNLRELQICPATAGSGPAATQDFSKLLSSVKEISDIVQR

CDKL2 (human) = CDKL2 (human) (UniProt Q92772)
LATS1 (human) = LATS1 (human) (UniProt O95835)
LATS1 (human), sequence (O95835 whole entry, looked up): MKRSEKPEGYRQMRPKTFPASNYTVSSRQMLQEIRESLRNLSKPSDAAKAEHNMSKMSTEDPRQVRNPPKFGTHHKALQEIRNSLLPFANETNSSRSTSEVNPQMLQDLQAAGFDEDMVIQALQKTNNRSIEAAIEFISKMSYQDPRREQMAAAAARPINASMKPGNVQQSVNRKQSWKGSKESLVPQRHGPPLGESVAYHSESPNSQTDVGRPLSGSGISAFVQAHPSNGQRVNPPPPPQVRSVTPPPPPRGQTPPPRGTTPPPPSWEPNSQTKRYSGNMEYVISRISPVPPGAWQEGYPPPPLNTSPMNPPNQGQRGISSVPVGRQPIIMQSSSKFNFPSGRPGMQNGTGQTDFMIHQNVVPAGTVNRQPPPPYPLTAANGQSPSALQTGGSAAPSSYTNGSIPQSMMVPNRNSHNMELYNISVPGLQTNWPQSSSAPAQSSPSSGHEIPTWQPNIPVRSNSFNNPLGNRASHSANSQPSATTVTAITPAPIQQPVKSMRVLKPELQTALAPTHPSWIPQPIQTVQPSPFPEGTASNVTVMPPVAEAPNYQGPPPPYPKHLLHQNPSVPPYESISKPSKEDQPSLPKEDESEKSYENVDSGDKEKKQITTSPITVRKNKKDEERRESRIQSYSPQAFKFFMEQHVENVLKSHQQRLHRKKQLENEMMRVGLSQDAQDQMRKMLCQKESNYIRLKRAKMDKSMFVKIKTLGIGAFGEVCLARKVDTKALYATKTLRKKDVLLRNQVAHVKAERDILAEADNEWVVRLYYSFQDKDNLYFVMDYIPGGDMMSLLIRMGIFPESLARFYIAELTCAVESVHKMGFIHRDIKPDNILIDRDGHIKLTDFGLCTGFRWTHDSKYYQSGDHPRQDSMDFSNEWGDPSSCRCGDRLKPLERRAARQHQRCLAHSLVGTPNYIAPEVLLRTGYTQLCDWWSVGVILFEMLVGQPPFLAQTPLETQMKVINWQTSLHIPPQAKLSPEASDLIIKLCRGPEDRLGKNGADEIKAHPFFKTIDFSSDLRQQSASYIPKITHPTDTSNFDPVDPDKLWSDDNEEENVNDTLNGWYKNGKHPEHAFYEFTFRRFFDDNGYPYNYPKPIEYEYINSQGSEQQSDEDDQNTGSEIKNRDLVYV

STK3 (human) = STK3 (human) (UniProt Q13188)
STK3 (human), sequence (Q13188 whole entry, looked up): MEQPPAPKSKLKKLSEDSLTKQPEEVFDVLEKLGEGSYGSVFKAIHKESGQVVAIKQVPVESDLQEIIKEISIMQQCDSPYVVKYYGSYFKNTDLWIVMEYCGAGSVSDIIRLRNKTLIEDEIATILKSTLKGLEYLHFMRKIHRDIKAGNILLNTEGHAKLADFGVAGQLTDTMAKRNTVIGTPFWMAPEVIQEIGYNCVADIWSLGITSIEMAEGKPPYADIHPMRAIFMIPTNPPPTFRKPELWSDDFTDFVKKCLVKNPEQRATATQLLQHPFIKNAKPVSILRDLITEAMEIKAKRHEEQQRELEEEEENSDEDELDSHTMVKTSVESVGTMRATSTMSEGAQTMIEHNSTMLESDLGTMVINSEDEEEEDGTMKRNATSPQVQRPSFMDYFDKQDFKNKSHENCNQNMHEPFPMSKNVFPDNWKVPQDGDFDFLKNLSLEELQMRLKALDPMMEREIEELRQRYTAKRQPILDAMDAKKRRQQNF

PAK6 (human) = PAK6 (human) (UniProt Q9NQU5)
PAK6 (human), sequence (Q9NQU5 whole entry, looked up): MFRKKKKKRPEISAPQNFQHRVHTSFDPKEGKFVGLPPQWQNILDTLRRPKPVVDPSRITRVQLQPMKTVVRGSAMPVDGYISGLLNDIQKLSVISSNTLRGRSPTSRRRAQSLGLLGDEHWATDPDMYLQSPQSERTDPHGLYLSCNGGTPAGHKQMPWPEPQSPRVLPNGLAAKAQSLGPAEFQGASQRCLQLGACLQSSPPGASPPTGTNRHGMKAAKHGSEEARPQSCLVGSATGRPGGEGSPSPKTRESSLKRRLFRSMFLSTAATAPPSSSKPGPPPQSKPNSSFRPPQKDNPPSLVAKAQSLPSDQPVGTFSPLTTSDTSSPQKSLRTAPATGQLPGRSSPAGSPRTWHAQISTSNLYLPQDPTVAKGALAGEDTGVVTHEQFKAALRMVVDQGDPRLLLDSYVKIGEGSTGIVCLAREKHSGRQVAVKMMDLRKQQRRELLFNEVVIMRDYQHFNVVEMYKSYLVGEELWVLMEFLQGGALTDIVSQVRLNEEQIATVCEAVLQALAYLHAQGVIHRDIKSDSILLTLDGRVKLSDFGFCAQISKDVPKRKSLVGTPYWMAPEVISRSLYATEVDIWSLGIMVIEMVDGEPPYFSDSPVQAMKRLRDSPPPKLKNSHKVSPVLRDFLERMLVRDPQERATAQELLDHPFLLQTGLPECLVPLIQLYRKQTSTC

PRKG2 (human) = PRKG2 (human) (UniProt Q13237)
PRKD2 (human) = PRKD2 (human) (UniProt Q9BZL6)
CAMK4 (human) = CAMK4 (human) (UniProt Q16566)
CAMK4 (human), sequence (Q16566 whole entry, looked up): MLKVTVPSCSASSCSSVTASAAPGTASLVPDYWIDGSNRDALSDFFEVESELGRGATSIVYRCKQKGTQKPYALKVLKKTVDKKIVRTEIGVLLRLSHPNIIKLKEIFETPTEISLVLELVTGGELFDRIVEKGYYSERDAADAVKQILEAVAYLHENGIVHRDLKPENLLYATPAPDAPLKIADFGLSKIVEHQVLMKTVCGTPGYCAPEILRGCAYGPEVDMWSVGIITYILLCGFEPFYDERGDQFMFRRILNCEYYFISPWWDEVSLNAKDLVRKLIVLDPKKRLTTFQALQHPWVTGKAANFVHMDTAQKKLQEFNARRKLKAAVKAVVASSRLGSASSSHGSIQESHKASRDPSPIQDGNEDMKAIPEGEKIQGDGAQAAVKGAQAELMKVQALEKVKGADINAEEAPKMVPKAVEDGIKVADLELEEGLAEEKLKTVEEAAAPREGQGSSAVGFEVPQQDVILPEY

MAPK10 (human) = MAPK10 (human) (UniProt P53779)
CDK5 (human) = CDK5 (human) (UniProt Q00535)
YES1 (human) = YES1 (human) (UniProt P07947)
GSK3B (human) = GSK3B (human) (UniProt P49841)
TYRO3 (human) = TYRO3 (human) (UniProt Q06418)
MAP4K3 (human) = MAP4K3 (human) (UniProt Q8IVH8)
EPHB1 (human) = EPHB1 (human) (UniProt P54762)
BMPR1A (human) = BMPR1A (human) (UniProt P36894)
EPHA3 (human) = EPHA3 (human) (UniProt P29320)
MAP3K3 (human) = MAP3K3 (human) (UniProt Q99759)
CSNK1A1L (human) = CSNK1A1L (human) (UniProt Q8N752)
IGF1R (human) = IGF1R (human) (UniProt P08069)
MST1R (human) = MST1R (human) (UniProt Q04912)
[3] = system: EGFR (human), P00533 [L861Q]
BTK (human) = BTK (human) (UniProt Q06187)
STK10 (human) = STK10 (human) (UniProt O94804)
[4] = system: RET (human), P07949 [M918T]
RET (human), P07949 [M918T], sequence (P07949 whole entry M918T, looked up): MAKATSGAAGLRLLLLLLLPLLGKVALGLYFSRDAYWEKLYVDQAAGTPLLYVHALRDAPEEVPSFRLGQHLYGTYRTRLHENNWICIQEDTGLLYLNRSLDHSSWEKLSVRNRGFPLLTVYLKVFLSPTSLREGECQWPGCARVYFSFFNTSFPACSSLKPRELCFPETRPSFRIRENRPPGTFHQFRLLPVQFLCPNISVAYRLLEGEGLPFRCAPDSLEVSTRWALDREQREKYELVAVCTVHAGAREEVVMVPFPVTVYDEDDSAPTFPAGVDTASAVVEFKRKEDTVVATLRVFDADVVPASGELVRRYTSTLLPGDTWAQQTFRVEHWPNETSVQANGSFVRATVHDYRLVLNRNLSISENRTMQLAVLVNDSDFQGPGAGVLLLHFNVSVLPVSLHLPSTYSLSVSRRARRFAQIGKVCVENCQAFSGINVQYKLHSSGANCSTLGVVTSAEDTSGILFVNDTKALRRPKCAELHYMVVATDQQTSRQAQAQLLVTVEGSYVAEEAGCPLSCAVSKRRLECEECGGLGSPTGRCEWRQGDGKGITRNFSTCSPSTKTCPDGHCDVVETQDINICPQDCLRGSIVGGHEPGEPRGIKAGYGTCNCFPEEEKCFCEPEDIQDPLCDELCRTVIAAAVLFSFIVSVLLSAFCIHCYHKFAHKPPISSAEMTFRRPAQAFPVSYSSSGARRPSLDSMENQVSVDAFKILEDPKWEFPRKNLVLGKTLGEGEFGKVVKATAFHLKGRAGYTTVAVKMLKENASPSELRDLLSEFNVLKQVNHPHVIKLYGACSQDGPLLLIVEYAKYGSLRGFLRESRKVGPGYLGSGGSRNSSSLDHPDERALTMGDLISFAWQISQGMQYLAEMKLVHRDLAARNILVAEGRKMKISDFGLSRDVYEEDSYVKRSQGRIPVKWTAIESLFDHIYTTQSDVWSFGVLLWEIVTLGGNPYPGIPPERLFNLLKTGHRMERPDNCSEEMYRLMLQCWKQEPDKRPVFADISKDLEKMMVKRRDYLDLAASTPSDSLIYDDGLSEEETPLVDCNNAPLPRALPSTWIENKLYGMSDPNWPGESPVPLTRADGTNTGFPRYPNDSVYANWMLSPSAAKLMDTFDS

RPS6KA4 KD1 (human) = RPS6KA4 KD1 (human) (UniProt O75676)
STK38L (human) = STK38L (human) (UniProt Q9Y2H1)
CAMK1G (human) = CAMK1G (human) (UniProt Q96NX5)
RET (human) = RET (human) (UniProt P07949)
RET (human), sequence (P07949 whole entry, looked up): as the sequence (P07949 whole entry M918T, looked up) above, with T918M counted along it

PIK3CA (human) = PIK3CA (human) (UniProt P42336)

Compound COc1cc(N2CCN(C)CC2)ccc1Nc1ncc2c(n1)N(C)c1sccc1C(=O)N2C has a kinase still bound, per cent of control (PRKACB (human)) of 100%, a kinase still bound, per cent of control (KDR (human)) of 90% and a kinase still bound, per cent of control (STK36 (human)) of 100%. It also gave a kinase still bound, per cent of control [1] of 70%, a kinase still bound, per cent of control (ROCK2 (human)) of 57% and a kinase still bound, per cent of control (MYLK2 (human)) of 90%. For the same compound, the kinase still bound, per cent of control (MARK1 (human)) was 64%, the kinase still bound, per cent of control (CHEK2 (human)) was 77% and the kinase still bound, per cent of control (STK32C (human)) was 99%. For the same compound, the kinase still bound, per cent of control (TEK (human)) was 88%, the kinase still bound, per cent of control (NTRK3 (human)) was 68% and the kinase still bound, per cent of control (INSRR (human)) was 96%. For the same compound, the kinase still bound, per cent of control [2] was 1.8%, the kinase still bound, per cent of control (CDKL2 (human)) was 100% and the kinase still bound, per cent of control (LATS1 (human)) was 79%. It also gave a kinase still bound, per cent of control (STK3 (human)) of 69%, a kinase still bound, per cent of control (PAK6 (human)) of 74% and a kinase still bound, per cent of control (PRKG2 (human)) of 84%. The kinase still bound, per cent of control (PRKD2 (human)) was 9.2%, the kinase still bound, per cent of control (CAMK4 (human)) was 80% and the kinase still bound, per cent of control (MAPK10 (human)) was 70%. It also gave a kinase still bound, per cent of control (CDK5 (human)) of 74%, a kinase still bound, per cent of control (YES1 (human)) of 87% and a kinase still bound, per cent of control (GSK3B (human)) of 97%. It also gave a kinase still bound, per cent of control (TYRO3 (human)) of 76%, a kinase still bound, per cent of control (MAP4K3 (human)) of 79% and a kinase still bound, per cent of control (EPHB1 (human)) of 88%. It also gave a kinase still bound, per cent of control (BMPR1A (human)) of 100%, a kinase still bound, per cent of control (EPHA3 (human)) of 71% and a kinase still bound, per cent of control (MAP3K3 (human)) of 72%. The kinase still bound, per cent of control (CSNK1A1L (human)) was 93%, the kinase still bound, per cent of control (IGF1R (human)) was 100% and the kinase still bound, per cent of control (MST1R (human)) was 76%. The kinase still bound, per cent of control [3] was 46%, the kinase still bound, per cent of control (BTK (human)) was 82% and the kinase still bound, per cent of control (STK10 (human)) was 100%. It also gave a kinase still bound, per cent of control [4] of 96%, a kinase still bound, per cent of control (RPS6KA4 KD1 (human)) of 100% and a kinase still bound, per cent of control (STK38L (human)) of 88%. It also gave a kinase still bound, per cent of control (CAMK1G (human)) of 68%, a kinase still bound, per cent of control (RET (human)) of 85% and a kinase still bound, per cent of control (PIK3CA (human)) of 97%.
COc1cc(N2CCN(C)CC2)ccc1Nc1ncc2c(n1)N(C)c1ccccc1N(C)C2=O was tested, and the kinase still bound, per cent of control (PRKACB (human)) was 100%, the kinase still bound, per cent of control (KDR (human)) was 100% and the kinase still bound, per cent of control (STK36 (human)) was 88%. For the same compound, the kinase still bound, per cent of control [1] was 49%, the kinase still bound, per cent of control (ROCK2 (human)) was 50% and the kinase still bound, per cent of control (MYLK2 (human)) was 100%. It also gave a kinase still bound, per cent of control (MARK1 (human)) of 86%, a kinase still bound, per cent of control (CHEK2 (human)) of 97% and a kinase still bound, per cent of control (STK32C (human)) of 100%. For the same compound, the kinase still bound, per cent of control (TEK (human)) was 100%, the kinase still bound, per cent of control (NTRK3 (human)) was 79% and the kinase still bound, per cent of control (INSRR (human)) was 55%. The kinase still bound, per cent of control [2] was 45%, the kinase still bound, per cent of control (CDKL2 (human)) was 81% and the kinase still bound, per cent of control (LATS1 (human)) was 94%. For the same compound, the kinase still bound, per cent of control (STK3 (human)) was 98%, the kinase still bound, per cent of control (PAK6 (human)) was 100% and the kinase still bound, per cent of control (PRKG2 (human)) was 99%. The kinase still bound, per cent of control (PRKD2 (human)) was 100%, the kinase still bound, per cent of control (CAMK4 (human)) was 100% and the kinase still bound, per cent of control (MAPK10 (human)) was 85%. The kinase still bound, per cent of control (CDK5 (human)) was 100%, the kinase still bound, per cent of control (YES1 (human)) was 100% and the kinase still bound, per cent of control (GSK3B (human)) was 82%. It also gave a kinase still bound, per cent of control (TYRO3 (human)) of 100%, a kinase still bound, per cent of control (MAP4K3 (human)) of 100% and a kinase still bound, per cent of control (EPHB1 (human)) of 100%. It also gave a kinase still bound, per cent of control (BMPR1A (human)) of 100%, a kinase still bound, per cent of control (EPHA3 (human)) of 81% and a kinase still bound, per cent of control (MAP3K3 (human)) of 93%. For the same compound, the kinase still bound, per cent of control (CSNK1A1L (human)) was 100%, the kinase still bound, per cent of control (IGF1R (human)) was 100% and the kinase still bound, per cent of control (MST1R (human)) was 100%. For the same compound, the kinase still bound, per cent of control [3] was 85%, the kinase still bound, per cent of control (BTK (human)) was 78% and the kinase still bound, per cent of control (STK10 (human)) was 100%. It also gave a kinase still bound, per cent of control [4] of 100%, a kinase still bound, per cent of control (RPS6KA4 KD1 (human)) of 100% and a kinase still bound, per cent of control (STK38L (human)) of 100%. The kinase still bound, per cent of control (CAMK1G (human)) was 100%, the kinase still bound, per cent of control (RET (human)) was 100% and the kinase still bound, per cent of control (PIK3CA (human)) was 100%.
COc1cc(N2CCC(O)CC2)ccc1Nc1ncc2c(n1)N1CCc3cccc(c31)C(=O)N2C showed a kinase still bound, per cent of control (PRKACB (human)) of 100%, a kinase still bound, per cent of control (KDR (human)) of 79% and a kinase still bound, per cent of control (STK36 (human)) of 100%. The kinase still bound, per cent of control [1] was 84%, the kinase still bound, per cent of control (ROCK2 (human)) was 86% and the kinase still bound, per cent of control (MYLK2 (human)) was 98%. The kinase still bound, per cent of control (MARK1 (human)) was 95%, the kinase still bound, per cent of control (CHEK2 (human)) was 42% and the kinase still bound, per cent of control (STK32C (human)) was 75%. The kinase still bound, per cent of control (TEK (human)) was 98%, the kinase still bound, per cent of control (NTRK3 (human)) was 93% and the kinase still bound, per cent of control (INSRR (human)) was 78%. For the same compound, the kinase still bound, per cent of control [2] was 63%, the kinase still bound, per cent of control (CDKL2 (human)) was 100% and the kinase still bound, per cent of control (LATS1 (human)) was 100%. The kinase still bound, per cent of control (STK3 (human)) was 84%, the kinase still bound, per cent of control (PAK6 (human)) was 92% and the kinase still bound, per cent of control (PRKG2 (human)) was 96%. For the same compound, the kinase still bound, per cent of control (PRKD2 (human)) was 45%, the kinase still bound, per cent of control (CAMK4 (human)) was 100% and the kinase still bound, per cent of control (MAPK10 (human)) was 42%. The kinase still bound, per cent of control (CDK5 (human)) was 86%, the kinase still bound, per cent of control (YES1 (human)) was 99% and the kinase still bound, per cent of control (GSK3B (human)) was 91%. For the same compound, the kinase still bound, per cent of control (TYRO3 (human)) was 100%, the kinase still bound, per cent of control (MAP4K3 (human)) was 66% and the kinase still bound, per cent of control (EPHB1 (human)) was 99%. It also gave a kinase still bound, per cent of control (BMPR1A (human)) of 100%, a kinase still bound, per cent of control (EPHA3 (human)) of 72% and a kinase still bound, per cent of control (MAP3K3 (human)) of 94%. It also gave a kinase still bound, per cent of control (CSNK1A1L (human)) of 95%, a kinase still bound, per cent of control (IGF1R (human)) of 100% and a kinase still bound, per cent of control (MST1R (human)) of 82%. For the same compound, the kinase still bound, per cent of control [3] was 64%, the kinase still bound, per cent of control (BTK (human)) was 78% and the kinase still bound, per cent of control (STK10 (human)) was 100%. The kinase still bound, per cent of control [4] was 100%, the kinase still bound, per cent of control (RPS6KA4 KD1 (human)) was 96% and the kinase still bound, per cent of control (STK38L (human)) was 94%. It also gave a kinase still bound, per cent of control (CAMK1G (human)) of 57%, a kinase still bound, per cent of control (RET (human)) of 100% and a kinase still bound, per cent of control (PIK3CA (human)) of 84%.
